In general, GI50 refers to the concentration that inhibits growth by half. In general, IC50 refers to the concentration that gives 50% inhibition.

Molecules are shown by their SMILES. Where two headings read alike, the source gives them in different places.

Assay [1] relates to ovarian cancer cells (PA-1). As to the kind of experiment: Cancer cell line growth inhibition (SRB assay). It is filed as cell-based. As to conditions: Homo sapiens, PA-1; read-out: Cancer Cell Line GI50 Range PA-1. On the technique in general: In SRB staining, fixed cells bind dye roughly in proportion to their protein.
Assay [2] deals with colon cancer cells (HCT116). As to the kind of experiment: Cancer cell line growth inhibition (SRB assay). As to conditions: Homo sapiens, HCT-116, read-out: Cancer Cell Line GI50 Range HCT116. It is filed as cell-based.
A further assay concerns the target T1, human TTK (Homo sapiens, UniProt P33981).
T1 construct: amino terminal GST fusion of full length human TTK; purchased Invitrogen
T1 sequence (P33981 1-857): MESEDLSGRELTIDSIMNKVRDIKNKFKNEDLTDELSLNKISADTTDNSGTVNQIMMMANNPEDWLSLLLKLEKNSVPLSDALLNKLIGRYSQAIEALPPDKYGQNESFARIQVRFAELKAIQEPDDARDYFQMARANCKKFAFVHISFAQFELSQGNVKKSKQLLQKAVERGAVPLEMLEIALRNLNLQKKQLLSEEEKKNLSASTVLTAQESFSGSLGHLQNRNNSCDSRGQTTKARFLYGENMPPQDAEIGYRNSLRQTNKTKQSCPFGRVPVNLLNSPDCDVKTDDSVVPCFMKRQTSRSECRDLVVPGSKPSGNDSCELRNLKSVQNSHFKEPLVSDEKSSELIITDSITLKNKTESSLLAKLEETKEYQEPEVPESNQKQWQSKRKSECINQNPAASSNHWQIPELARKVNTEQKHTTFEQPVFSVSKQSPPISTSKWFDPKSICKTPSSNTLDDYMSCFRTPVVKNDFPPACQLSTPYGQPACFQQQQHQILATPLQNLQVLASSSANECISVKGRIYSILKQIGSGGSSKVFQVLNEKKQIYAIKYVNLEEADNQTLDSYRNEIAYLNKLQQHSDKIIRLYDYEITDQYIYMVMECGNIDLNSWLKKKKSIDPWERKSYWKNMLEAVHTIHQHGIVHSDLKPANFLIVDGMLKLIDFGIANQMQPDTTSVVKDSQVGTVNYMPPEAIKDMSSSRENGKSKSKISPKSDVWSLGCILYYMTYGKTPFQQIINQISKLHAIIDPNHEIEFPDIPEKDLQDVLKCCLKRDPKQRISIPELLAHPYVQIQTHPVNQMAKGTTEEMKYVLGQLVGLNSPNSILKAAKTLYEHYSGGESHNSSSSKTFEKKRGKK
Description: TTK inhibition assay (indirect ELISA). Type of assay: biochemical. The following applies: read-out: TTK IC50 Range. (In general: ELISA stands for enzyme-linked immunosorbent assay.)

[3] abbreviates: HCT116 colon cancer cells, SRB assay.

In the case of `O=C(NCC1(N2CCOCC2)CCCCC1)c1ccc2[nH]nc(-c3ccc(OC4CCN(C5COC5)CC4)cc3)c2c1` [Example A506, N-((1-morpholinocyclohexyl)methyl)-3-(4-((1-(oxelan-3-yl)piperidin-4-yl)oxy)phenyl)-1H-indazole-5-carboxamide], the concentration for 50% growth inhibition (GI50) in assay [1] and in assay [2] was less than 100 nM each time. Moreover, at human TTK, the IC50 is less than 100 nM.

On to `O=C(N[C@H](c1ccccc1)C1CC1)c1ccc2[nH]nc(-c3ccc(OC4CCN(C(=O)CO)CC4)cc3)c2c1` [Example A382, (S)-N-(cyclopropyl(phenyl)methyl)-3-(4-((1-(2-hydroxyacetyl)piperidin-4-yl)oxy)phenyl)-1H-indazole-5-carboxamide], for which the GI50 in assay [1] and in assay [2] was less than 100 nM each time. Besides, on human TTK, the concentration for half-maximal inhibition (IC50) is less than 100 nM.

As for `O=C(NC(c1ccccc1)C(F)F)c1ccc2[nH]nc(-c3ccc(OC4CCN(C5COC5)CC4)cc3)c2c1` (stereo not drawn) [Example A226, N-(2,2-difluoro-1-phenylethyl)-3-(4-((1-(oxetan-3-yl)piperidin-4-yl)oxy)phenyl)-1H-indazole-5-carboxamide], the GI50 in assay [1] and in assay [2] was 100 to 500 nM in each case. Besides, at human TTK, the IC50 is less than 100 nM.

Take `O=C(NC(c1ccccc1)C1CC1)c1ccc2[nH]nc(-c3ccc(N4CCOCC4)c(F)c3)c2c1` (stereo not drawn) [Example A65, N-(cyclopropyl(phenyl)methyl)-3-(3-fluoro-4-morpholinophenyl)-1H-indazole-5-carboxamide]: the 50% growth inhibitory concentration (GI50) in assay [2] (setting [3]) was greater than 500 nM. In addition, the IC50 at human TTK is 100 to 500 nM.

In the case of `O=C(Nc1ccc2[nH]nc(-c3ccc(CN4CCOCC4)cc3)c2c1)C1CCCc2ccccc21` (stereo not drawn) [Example A23, N-(3-(4-(morpholinomethyl)phenyl)-1H-indazol-5-yl)-1,2,3,4-tetrahydronaphthalene-1-carboxamide], the GI50 in assay [2] (setting [3]) is greater than 500 nM. The IC50 at human TTK was 100 to 500 nM.

Regarding `C[C@@H]1CN(C2(CNC(=O)c3ccc4[nH]nc(-c5ccc(OC6CCN(C)CC6)cc5)c4c3)CCCCC2)C[C@H](C)O1` [Example A452, N-((1-((2S,6R)-2,6-dimethylmorpholino)cyclohexyl)methyl)-3-(4-((1-methylpiperidin-4-yl)oxy)phenyl)-1H-indazole-5-carboxamide], the GI50 in assay [2] (setting [3]) was greater than 500 nM. Also, the half-inhibitory concentration (IC50) at human TTK was less than 100 nM.

For `C[C@@H]1CN(C2(CNC(=O)c3ccc4[nH]nc(-c5ccc(N6CCOCC6)cc5)c4c3)CCCCC2)C[C@H](C)O1` [Example A451, N((1-((2S,6R)-2,6-dimethylmorpholino)cyclohexyl)methyl)-3-(4-morpholinophenyl)-1H-indazole-5-carboxamide], the GI50 in assay [2] (setting [3]) is greater than 500 nM. Moreover, the concentration for half-maximal inhibition (IC50) at human TTK lay in the range of 100 to 500 nM.

As to `Cc1cc(-c2n[nH]c3ccc(C(=O)NC(c4ccccc4)C4CC4)cc23)ccc1N1CCOCC1` (stereo not drawn) [Example A64, N-(cyclopropyl(phenyl)methyl)-3-(3-methyl-4-morpholinophenyl)-1H-indazole-5-carboxamide], the GI50 in assay [2] (setting [3]) is greater than 500 nM. Moreover, the 50% inhibitory concentration (IC50) on human TTK was 100 to 500 nM.

Take `CN1CCN(C2(CNC(=O)c3ccc4[nH]nc(-c5ccc(N6CCOCC6)cc5)c4c3)CCCCC2)CC1` [Example A448, N-((1-(4-methylpiperazin-1-yl)cyclohexyl)methyl)-3-(4-morpholinophenyl)-1H-indazole-5-carboxamide]: the GI50 in assay [2] (setting [3]) lay within 100 to 500 nM. For the same molecule, the 50% inhibitory concentration (IC50) at human TTK was less than 100 nM.

`CN1CCC(Oc2ccc(-c3n[nH]c4ccc(NC(=O)Nc5ccccc5F)cc34)cc2)CC1` [Example A56, 1-(2-fluorophenyl)-3-(3-(4-((1-methylpiperidin-4-yl)oxy)phenyl)-1H-indazol-5-yl)urea]: in assay [2] (setting [3]), the GI50 was greater than 500 nM. The half-maximal inhibitory concentration (IC50) at human TTK fell in the range of 100 to 500 nM.

Consider `Cc1cc(-c2n[nH]c3ccc(NC(=O)C(c4ccsc4)N4CCCC4)cc23)ccc1N1CCOCC1` (stereo not drawn) [Example A59, N-(3-(3-methyl-4-morpholinophenyl)-1H-indazol-5-yl)-2-(pyrrolidin-1-yl)-2-(thiophen-3-yl)acetamide], for which, in assay [2] (setting [3]), the GI50 was greater than 500 nM. The IC50 at human TTK is 100 to 500 nM.

With `O=C(Nc1ccc2[nH]nc(-c3ccc(N4CCOCC4)nc3)c2c1)C(c1ccsc1)N1CCCC1` (stereo not drawn) [Example A52, N-(3-(6-morpholinopyridin-3-yl)-1H-indazol-5-yl)-2-(pyrrolidin-1-yl)-2-(thiophen-3-yl)acetamide], the GI50 in assay [2] (setting [3]) fell in the range of 100 to 500 nM. Also, the IC50 on human TTK was less than 100 nM.

With `O=C(NCC1(N2CCOCC2)CCCC1)c1ccc2[nH]nc(-c3ccc(OC4CCOCC4)cc3)c2c1` [Example A477, N-((1-morpholinocyclopentyl)methyl)-3-(4-((tetrahydro-2H-pyran-4-yl)oxy)phenyl)-1H-indazole-5-carboxamide], on human TTK, the IC50 is 100 to 500 nM.

In the case of `O=C(NCC1(N2CCC(F)CC2)CCCCC1)c1ccc2[nH]nc(-c3ccc(N4CCOCC4)cc3)c2c1` [Example A456, N-((1-(4-fluoropiperidin-1-yl)cyclohexyl)methyl)-3-(4-morpholinophenyl)-1H-indazole-5-carboxamide], at human TTK, the 50% inhibitory concentration (IC50) was 100 to 500 nM.

With `O=C(Nc1ccc2[nH]nc(-c3ccc(N4CCOCC4)cc3)c2c1)Nc1ccccc1Cl` [Example A66, 1-(2-chlorophenyl)-3-(3-(4-morpholinophenyl)-1H-indazol-5-yl)urea], in assay [2] (setting [3]), the GI50 was greater than 500 nM. Moreover, the half-inhibitory concentration (IC50) at human TTK was greater than 500 nM.

Consider `CN(C)C1(CNC(=O)c2ccc3[nH]nc(-c4ccc(N5CCOCC5)cc4)c3c2)CCCCC1` [Example A450, N-((1-(dimethylamino)cyclohexyl)methyl)-3-(4-morpholinophenyl)-1H-indazole-5-carboxamide], for which the GI50 in assay [2] (setting [3]) is greater than 500 nM. The IC50 on human TTK is greater than 500 nM.

Regarding `O=C(NC(c1ccccc1)C1CC1)c1ccc2[nH]nc(-c3ccc(N4CCOCC4)nc3)c2c1` (stereo not drawn) [Example A54, N-(cyclopropyl(phenyl)methyl)-3-(6-morpholinopyridin-3-yl)-1H-indazole-5-carboxamide], the concentration for 50% growth inhibition (GI50) in assay [2] (setting [3]) is greater than 500 nM. Also, the IC50 at human TTK is less than 100 nM.

`CN1CCC(Oc2ccc(-c3n[nH]c4ccc(C(=O)NCC5(CN6CCOCC6)CC5)cc34)cc2)CC1` [Example A498, 3-(4-((1-methylpiperidin-4-yl)oxy)phenyl)-N-((1-(morpholinomethyl)cyclopropyl)methyl)-1H-indazole-5-carboxamide]: the concentration for half-maximal inhibition (IC50) at human TTK lay in the range of 100 to 500 nM.

In the case of `CC(C)(C)C[C@H](NC(=O)c1ccc2[nH]nc(-c3ccc(N4CC(N5CCOCC5)C4)cc3)c2c1)c1ccccc1` [Example A520, (S)-N-(3,3-dimethyl-1-phenylbutyl)-3-(4-(3-morpholinoazetidin-1-yl)phenyl)-1H-indazole-5-carboxamide], on human TTK, the IC50 is less than 100 nM.

As for `C[C@@H]1CC(CNC(=O)c2ccc3[nH]nc(-c4ccc(OC5CCN(C)CC5)cc4)c3c2)(N2CCOCC2)C[C@H](C)O1` (stereo partly drawn) [Example A475, N-(((2R,6S)-2,6-dimethyl-4-morpholinotetrahydro-2H-pyran-4-yl)methyl)-3-(4-((1-methylpiperidin-4-yl)oxy)phenyl)-1H-indazole-5-carboxamide], the IC50 at human TTK was 100 to 500 nM.

Consider `O=C(NCC1(N2CCCCC2)CCCCC1)c1ccc2[nH]nc(-c3ccc(N4CCOCC4)cc3)c2c1` [Example A446, 3-(4-morpholinophenyl)-N-((1-(piperidin-1-yl)cyclohexyl)methyl)-1H-indazole-5-carboxamide], for which the GI50 in assay [2] (setting [3]) fell in the range of 100 to 500 nM. At human TTK, the IC50 fell in the range of 100 to 500 nM.

In the case of `C[C@@H]1C[C@H](Oc2ccc(-c3n[nH]c4ccc(C(=O)NCC5(N6CCOCC6)CCCC5)cc34)cc2)C[C@H](C)O1` [Example A430, (4-(((2R,4R,6S)-2,6-dimethyltetrahydro-2H-pyran-4-yl)oxy)phenyl)-N-((1-morpholinocyclopentyl)methyl)-1H-indazole-5-carboxamide], the concentration for half-maximal inhibition (IC50) at human TTK was 100 to 500 nM.

For `O=C(NC(c1ccccc1)C1CC1)c1ccc2[nH]nc(-c3cccc(N4CCOCC4)c3)c2c1` (stereo not drawn) [Example A61, N-(cyclopropyl(phenyl)methyl)-3-(3-morpholinophenyl)-1H-indazole-5-carboxamide], in assay [2] (setting [3]), the concentration for 50% growth inhibition (GI50) is greater than 500 nM. Moreover, the half-inhibitory concentration (IC50) on human TTK fell in the range of 100 to 500 nM.

As for `CN1CCC(Oc2ccc(-c3n[nH]c4ccc(C(=O)NCC5(N6CCOCC6)CCC5)cc34)cc2)CC1` [Example A479, 3-(4-((1-methylpiperidin-4-yl)oxy)phenyl)-N-((1-morpholinocyclobutyl)methyl)-1H-indazole-5-carboxamide], the half-inhibitory concentration (IC50) on human TTK fell in the range of 100 to 500 nM.

In the case of `CC(C)C[C@H](NC(=O)c1ccc2[nH]nc(-c3ccc(N4CC(N5CCOCC5)C4)cc3)c2c1)c1ccccc1` [Example A521, (S)-N-(3-methyl-1-phenylbutyl)-3-(4-(3-morpholinoazetidin-1-yl)phenyl)-1H-indazole-5-carboxamide], the concentration for half-maximal inhibition (IC50) on human TTK is less than 100 nM.

These data come from patent US9580390B2, “Indazole compounds as kinase inhibitors and method of treating cancer with same” (University Health Network, priority 2011, dated 2017).
